Measured values: US20230382904A1, “SUBSTITUTED 4-([1,2,4]TRIAZOLO[1,5-a]PYRIDIN-6-YL)THIOPHENE-2-CARBOXAMIDE DERIVATIVES AND USE THEREOF” (The Johns Hopkins University, priority 2020, published 2023)

Tests used:
DLK = DLK (Homo sapiens (Human), UniProt Q12852); experiment: DLK biochemical assay (TR-FRET, MKK7 phosphorylation)
Description: DLK assay is a biochemical assay format designed to screen for inhibitors of DLK. Enzymatic activity of DLK was measured by monitoring phosphorylation of the physiological substrate MKK7 (MAP2K7, Dual specificity mitogen-activated protein kinase kinase 7). Phosphorylation was detected by a TR-FRET system whereby His-tagged MKK7 was labeled by a XL665-labeled anti-His antibody (FRET acceptor, emission 665 nm). DLK phosphorylates MKK7 at T275/S277, which was detected by an Eu-labeled anti-phospho-MKK7 (T275/S277) antibody (F RET donor, excitation 340 nm). Phosphorylation of MKK7 results in an increased TR-FRET signal (Ratio XL665-channel/Eu-channel) and inhibition of enzymatic activity of DLK decreases the TR-FRET signal.
Assay Protocol for 1536 MTP format: test compounds were predispensed (60 nl) in test plates; +3 μl DLK solution (10 nM DLK, catalytic domain, Carna Biosiences, 0.6 mM DTT in assay buffer); +2 μl substrate solution (15 nM MKK7, LDB; 60 μM ATP; 0.4 mM DTT in assay buffer); 90 min incubation at RT; +2 μl detection mix (5 nM XL665-labeled anti-His antibody, Cisbio; 0.1 nM Eu-labeled anti-phospho-MKK7 (T275/S277), Cisbio/Millipore in detection buffer); 16 h incubation at 37° C.; endpoint measurement BMG (HTRF).
Assay Protocol for 384 low volume MTP format: 1 μl of test compounds were pipetted into test plate; +5 μl DLK solution (10 nM DLK, catalytic domain, Carna Biosiences in assay buffer); +5 μl substrate solution (15 nM MKK7, LDB; 60 μM ATP, in assay buffer); 90 min incubation at RT; +9 μl detection mix (20 nM XL665-labeled anti-His antibody, Cisbio; 0.4 nM Eu-labeled anti-phospho-MKK7 (T275/S277), Cisbio/Millipore in detection buffer); 16 h incubation at 4° C.; endpoint measurement BMG (HTRF).
(§1) All indicated concentrations final concentrations.
Assay buffer (384 format): 50 mM Hepes pH 7.5, 10 mM MgCl2, 1 mM EGTA, 1 mM DTT, 0,01% Triton X-100, 0.01% BSA, 1:500 Smart Block.
(§2) Detection buffer: 25 mM Tris/HCl pH 7.5, 100 mM EDTA, 100 mM NaCl, 200 mM KF, 0.01% Tween 20, 1:500 Smart Block.

LZK = LZK (Homo sapiens (Human), UniProt O43283); experiment: LZK biochemical assay (TR-FRET, MKK7 phosphorylation)
Sequence of LZK (O43283 168-409): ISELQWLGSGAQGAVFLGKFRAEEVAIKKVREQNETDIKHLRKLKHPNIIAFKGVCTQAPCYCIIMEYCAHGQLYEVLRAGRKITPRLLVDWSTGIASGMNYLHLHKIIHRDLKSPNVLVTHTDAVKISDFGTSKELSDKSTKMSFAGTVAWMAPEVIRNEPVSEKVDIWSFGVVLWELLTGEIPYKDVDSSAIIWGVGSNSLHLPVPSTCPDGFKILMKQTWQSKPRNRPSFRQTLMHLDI
Description: LZK assay is a biochemical assay format designed to screen for inhibitors of LZK. Enzymatic activity of LZK was measured by monitoring phosphorylation of the physiological substrate MKK7 (MAP2K7, Dual specificity mitogen-activated protein kinase kinase 7). Phosphorylation was detected by a TR-FRET system whereby His-tagged MKK7 was labeled by a XL665-labeled anti-His antibody (FRET acceptor, emission 665 nm). LZK phosphorylates MKK7 at T275/S277 which were detected by an Eu-labeled anti-phospho-MKK7 (T275/S277) antibody (FRET donor, excitation 340 nm). Phosphorylation of MKK7 results in an increased TR-FRET signal (Ratio XL665-channel/Eu-channel) and inhibition of enzymatic activity of LZK decreases the TR-FRET signal.
Assay Protocol for 384 low volume MTP format: 1 μl of test compound was pipetted into test plate; +5 μl LZK solution (10 nM LZK, catalytic domain, Carna Biosiences in assay buffer); +5 μl substrate solution (15 nM MKK7, LDB; 15 μM ATP, in assay buffer); 90 min incubation at RT; +5 μl detection mix (20 nM XL665-labeled anti-His antibody, Cisbio; 0.4 nM Eu-labeled anti-phospho-MKK7 (T275/S277), Cisbio/Millipore in detection buffer), 16 h incubation at 32° C.; endpoint measurement BMG (HTRF).
as §1
Assay buffer (384 format): 50 mM Hepes pH 7.5, 10 mM MgCl2, 1 mM EGTA, 1 mM DTT, 0.01% Triton X-100, 0.01% BSA, 1:500 Smart Block.
as §2

Sequence of DLK (Q12852 1-520): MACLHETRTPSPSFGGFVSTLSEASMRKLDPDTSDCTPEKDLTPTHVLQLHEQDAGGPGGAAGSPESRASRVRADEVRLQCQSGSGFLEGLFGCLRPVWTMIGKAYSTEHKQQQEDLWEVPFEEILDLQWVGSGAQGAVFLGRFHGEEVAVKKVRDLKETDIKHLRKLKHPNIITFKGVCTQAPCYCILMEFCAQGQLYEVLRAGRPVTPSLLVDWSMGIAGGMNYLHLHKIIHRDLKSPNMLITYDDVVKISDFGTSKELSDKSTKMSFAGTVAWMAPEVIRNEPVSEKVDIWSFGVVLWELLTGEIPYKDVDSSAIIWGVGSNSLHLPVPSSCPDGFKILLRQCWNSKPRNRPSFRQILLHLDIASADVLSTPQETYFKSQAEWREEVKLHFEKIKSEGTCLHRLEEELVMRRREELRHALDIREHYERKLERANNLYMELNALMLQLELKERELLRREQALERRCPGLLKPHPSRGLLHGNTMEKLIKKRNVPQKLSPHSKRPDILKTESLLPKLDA

Row | Compound | IC50 (DLK) | IC50 (LZK)
1 | CC[C@H](NC(=O)c1cc(-c2cc(C(=O)NC(C)CF)c3nc(N)nn3c2)cs1)c1ccc(F)cc1 (stereo partly shown) [Compound 141] | 10 nM | 63 nM
2 | CC[C@H](NC(=O)c1cc(-c2cc(C(=O)NC3(CO)CC3)c3nc(N)nn3c2)cs1)c1ccc(F)cc1 [Compound 140] | 72 nM | 790 nM
3 | C[C@H](NC(=O)c1cc(-c2cc(C(=O)NC3CCNC3)c3nc(N)nn3c2)cs1)c1ccc(F)cc1 (single isomer, unassigned) [Compound 49] | 94 nM | 1100 nM
4 | Cc1cc(-c2csc(C(=O)NCc3ccccc3)c2)cn2nc(N)nc12 [Compound 373] | 370 nM | 2800 nM
5 | Nc1nc2ccc(-c3csc(C(=O)NCc4ccco4)c3)cn2n1 [Compound 275] | 630 nM | 16000 nM
6 | CN(C(=O)c1cc(-c2ccc3nc(N)nn3c2)cs1)C1CCCCC1 [Compound 175] | 9550 nM | > 30000 nM
7 | C[C@@H](CO)NC(=O)c1cc(-c2csc(C(=O)NCc3nc4ccccc4o3)c2)cn2nc(N)nc12 [Compound 40] | 39 nM | 380 nM
8 | CCC(NC(=O)c1cc(-c2ccc3nc(N)nn3c2)cs1)c1ccc(F)cc1 (stereo not shown) [Compound 338] | 190 nM | > 30000 nM
9 | CN(CCc1ccccc1)C(=O)c1cc(-c2ccc3nc(N)nn3c2)cs1 [Compound 284] | 2600 nM | > 30000 nM
10 | CC(C)NC(=O)c1cc(-c2csc(C(=O)N[C@@H](C)c3ccc(OC(F)(F)F)cc3)c2)cn2nc(N)nc12 [Compound 118] | 210 nM | 5200 nM
11 | COc1cc(CNC(=O)c2cc(-c3ccc4nc(N)nn4c3)cs2)cc(OC)c1 [Compound 238] | 270 nM | > 30000 nM
12 | Cc1ccc([C@H](C)NC(=O)c2cc(-c3cc(C(=O)NC(C)C)c4nc(N)nn4c3)cs2)cc1 [Compound 90] | 21 nM | 490 nM
13 | Nc1nc2ccc(-c3csc(C(=O)NC(c4ccccc4)C4CC4)c3)cn2n1 (stereo not shown) [Compound 327] | 42 nM | 6100 nM
14 | Cc1cc(-c2csc(C(=O)NC3CCCCC3)c2)cn2nc(N)nc12 [Compound 374] | 280 nM | 9300 nM
15 | CC(C)NC(=O)c1cc(-c2csc(C(=O)NC3CC(C)(C)Oc4ccccc43)c2)cn2nc(N)nc12 (stereo not shown) [Compound 132] | 28 nM | 730 nM
16 | COc1cccc(CNC(=O)c2cc(-c3cc(C(=O)NC(C)C)n4nc(N)nc4c3)cs2)c1 [Compound 148] | 64 nM | 230 nM
17 | CC(C)NC(=O)c1cc(-c2csc(C(=O)N[C@@H](C)c3ccccc3)c2)cn2nc(N)nc12 [Compound 20] | 6.32 nM | 122 nM
18 | C[C@H](NC(=O)c1cc(-c2cc(C(F)(F)F)c3nc(N)nn3c2)cs1)c1ccc(F)cc1 [Compound 377] | 210 nM | 2400 nM
19 | CCNC(=O)c1cc(-c2csc(C(=O)NCc3ccc(F)cc3)c2)cn2nc(N)nc12 [Compound 7] | 87 nM | 480 nM
20 | CCc1nnc(-c2cc(-c3csc(C(=O)NCc4ccc(F)cc4)c3)cn3nc(N)nc23)o1 [Compound 395] | 1100 nM | 3600 nM
21 | CCN(CC)Cc1ccc(CNC(=O)c2cc(-c3ccc4nc(N)nn4c3)cs2)cc1 [Compound 329] | 740 nM | 21000 nM
22 | Nc1nc2c(F)cc(-c3csc(C(=O)NCc4ccc(F)cc4)c3)cn2n1 [Compound 382] | 310 nM | > 30000 nM
23 | CC(C)NC(=O)c1cc(-c2csc(C(=O)NCc3ccccc3)c2)cc2nc(N)nn12 [Compound 149] | 28 nM | 110 nM
24 | CC[C@H](NC(=O)c1cc(-c2cc(C(=O)N[C@@H](C)CC)n3nc(N)nc3c2)cs1)c1ccc(F)cc1 [Compound 156] | 7.5 nM | 79 nM

Row | Compound | IC50 (DLK) | IC50 (LZK)
25 | C[C@H](NC(=O)c1cc(-c2cc(C(=O)NC3CCC3)c3nc(N)nn3c2)cs1)c1ccc(C(F)(F)F)cc1 [Compound 92] | 55 nM | 2000 nM
26 | C[C@H](NC(=O)c1cc(-c2cc(C(=O)NCC(F)(F)F)c3nc(N)nn3c2)cs1)c1ccccc1 [Compound 62] | 120 nM | 10000 nM
27 | C[C@H](NC(=O)c1cc(-c2cc(C(=O)N[C@@H](C)CO)c3nc(N)nn3c2)cs1)c1ccccc1 [Compound 25] | 4.61 nM | 61 nM
28 | Nc1nc2ccc(-c3csc(C(=O)NCc4cccs4)c3)cn2n1 [Compound 274] | 260 nM | 11000 nM
29 | CC(NC(=O)c1cc(-c2ccc3nc(N)nn3c2)cs1)c1ccc(C(C)(C)C)cc1 (stereo not shown) [Compound 348] | 30000 nM | 30000 nM
30 | COc1cccc(CNC(=O)c2cc(-c3cc(C(=O)N(C)C)c4nc(N)nn4c3)cs2)c1 [Compound 2] | 18000 nM | > 30000 nM
31 | Nc1nc2ccc(-c3csc(C(=O)NCc4cccnc4)c3)cn2n1 [Compound 206] | 550 nM | 28000 nM
32 | Nc1nc2ccc(-c3csc(C(=O)NCc4ccoc4)c3)cn2n1 [Compound 277] | 480 nM | 18000 nM
33 | C[C@H](NC(=O)c1cc(-c2cc(C(=O)NC3CNC(=O)C3)c3nc(N)nn3c2)cs1)c1ccccc1 (single isomer, unassigned) [Compound 54] | 2.3 nM | 30 nM
34 | Nc1nc2ccc(-c3csc(C(=O)NC4CCCC4)c3)cn2n1 [Compound 170] | 520 nM | > 30000 nM
35 | CC[C@H](C)NC(=O)c1cc(-c2csc(C(=O)N[C@H]3CCOc4ccccc43)c2)cn2nc(N)nc12 [Compound 144-3] | 7.2 nM | 43 nM
36 | CC[C@H](NC(=O)c1cc(-c2cc(C(=O)NC(C)(C)C)c3nc(N)nn3c2)cs1)c1ccccc1 [Compound 84] | 19 nM | 340 nM
37 | C[C@H](NC(=O)c1cc(-c2cc(C(=O)N[C@H](CO)C(F)(F)F)c3nc(N)nn3c2)cs1)c1ccc(F)cc1 [Compound 109] | 7.5 nM | 120 nM
38 | CC[C@H](NC(=O)c1cc(-c2cc(C(=O)NC(C)C)n3nc(N)nc3c2)cs1)c1ccccc1 [Compound 152] | 4.15 nM | 57 nM
39 | Cc1cc(-c2csc(C(=O)NCc3ccc(F)cc3)c2)cn2nc(N)nc12 [Compound 371] | 500 nM | 2300 nM
40 | CC[C@@H](NC(=O)c1cc(-c2csc(C(=O)NCc3ccc(F)cc3)c2)cn2nc(N)nc12)C(F)(F)F [Compound 126] | 980 nM | 3400 nM
41 | COc1cc(CNC(=O)c2cc(-c3ccc4nc(N)nn4c3)cs2)ccn1 [Compound 234] | 470 nM | 18000 nM
42 | Nc1nc2cc(-c3csc(C(=O)NCC4CCCCC4)c3)ccn2n1 [Compound 366] | 310 nM | > 30000 nM
43 | CC(C)(CO)NC(=O)c1cc(-c2csc(C(=O)NCc3ccc(F)cc3)c2)cn2nc(N)nc12 [Compound 80] | 56.5 nM | 130 nM
44 | CC(C)c1ccccc1NC(=O)c1cc(-c2ccc3nc(N)nn3c2)cs1 [Compound 293] | 260 nM | > 30000 nM
45 | Nc1nc2ccc(-c3csc(C(=O)NC4CCCCCC4)c3)cn2n1 [Compound 174] | 440 nM | > 30000 nM
46 | CC(C)NC(=O)c1cc(-c2csc(C(=O)NC3(c4ccc(F)cc4)CCCC3)c2)cn2nc(N)nc12 [Compound 123] | 2.9 nM | 83 nM
47 | Cc1cccc(CNC(=O)c2cc(-c3ccc4nc(N)nn4c3)cs2)c1 [Compound 194] | 670 nM | > 30000 nM
